Assay results published in US10780074B2, “Compounds and uses thereof” (Sunovion Pharmaceuticals Inc., priority 2017, dated 2020).
Where a name gives a salt, the structure may show the parent alone.

These molecules were tested on behaviors of compound-treated mice (assay: Neuropharmacological Assay (SmartCube)). Conditions: Mus musculus, ip, 0.25 h, dose having 50% or more total activity in SmartCube, i.p., read-out: MED (minimal effective dose).
Format: in vivo
Procedure, shortened: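 Behavioral signatures were captured automatically by video, and each drug class received a probability for the best of three i.p. doses given 15 min pre-test (vehicle: Pharmasolve/PEG/propylene glycol). Potency is given as MED, the lowest mpk dose (typically 0.3–30) reaching 50% or more total activity.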
Work on CNC[C@@H]1OCCc2c(-c3ccnc(C)c3)cccc21 (single isomer, unassigned) [Compound 120, hydrochloride salt] yielded a minimal effective dose of 10 to 30 mg/kg. CNC[C@H]1OCCc2c(-c3ccnc(C)c3)cccc21 (single isomer, unassigned) [Compound 121, hydrochloride salt] was tested, and the minimal effective dose was ≤ 3 mg/kg. Cc1cc(-c2cccc3c2CCO[C@H]3CN)ccn1 (single isomer, unassigned) [Compound 122, hydrochloride salt] was tested, and the minimal effective dose was 10 to 30 mg/kg. With Cc1cc(-c2cccc3c2CCO[C@@H]3CN)ccn1 (single isomer, unassigned) [Compound 123, hydrochloride salt] the minimal effective dose was ≤ 3 mg/kg. For CNC[C@@H]1OCCc2c(-c3ccccc3)cccc21 (single isomer, unassigned) [Compound 128, hydrochloride salt], the minimal effective dose was 10 to 30 mg/kg. For CNC[C@H]1OCCc2c(-c3ccccc3)cccc21 (single isomer, unassigned) [Compound 129, hydrochloride salt], the minimal effective dose was 3 to 10 mg/kg. For NC[C@@H]1OCCc2c(-c3ccccc3)cccc21 (single isomer, unassigned) [Compound 130, hydrochloride salt], the minimal effective dose was 10 to 30 mg/kg. For NC[C@H]1OCCc2c(-c3ccccc3)cccc21 (single isomer, unassigned) [Compound 131, hydrochloride salt], the minimal effective dose was ≤ 3 mg/kg. Work on CNC[C@@H]1OCCCc2c(-c3ccncc3)cccc21 (single isomer, unassigned) [Compound 148] yielded a minimal effective dose of 10 to 30 mg/kg. CNC[C@H]1OCCCc2c(-c3ccncc3)cccc21 (single isomer, unassigned) [Compound 149] was tested, and the minimal effective dose was ≤ 3 mg/kg. With NC[C@@H]1OCCCc2c(-c3ccncc3)cccc21 (single isomer, unassigned) [Compound 150] the minimal effective dose was 10 to 30 mg/kg. NC[C@H]1OCCCc2c(-c3ccncc3)cccc21 (single isomer, unassigned) [Compound 151] gave a minimal effective dose of 3 to 10 mg/kg. In the case of CNC[C@@H]1OCCCc2c(-c3ccccn3)cccc21 (single isomer, unassigned) [Compound 156, hydrochloride salt], the minimal effective dose is reported as 10 to 30 mg/kg.

Same assay, conditions: i.p. 15 min before behavioral test, most efficacious dose(s) of 3 doses
CNC[C@@H]1OCCc2c(-c3ccnc(C)c3)cccc21 (single isomer, unassigned) [Compound 120, hydrochloride salt] was tested, and the “AD: ADHD (probability that activity matches class)” value (from here on “AD: ADHD”) was “+ (LOQ ≤ + <5%)”, the “AG: analgesic (probability that activity matches class)” value (shortened to “AG: analgesic”) was “+ (LOQ ≤ + <5%)” and the “AX: anxiolytic (probability that activity matches class)” value (“AX: anxiolytic” for short) was “++ (5% ≤ ++ <25%)”. For the same molecule, the “CE: cognitive enhancer (probability that activity matches class)” value (“CE: cognitive enhancer” for short) was “+ (LOQ ≤ + <5%)”, the “DP: anti-depressant (probability that activity matches class)” value (“DP: anti-depressant” for short) was “++ (5% ≤ ++ <25%)” and the “MS: mood stabilizer (probability that activity matches class)” value (from here on “MS: mood stabilizer”) was “+ (LOQ ≤ + <5%)”. For the same molecule, the “PS: anti-psychotic (probability that activity matches class)” value (from here on “PS: anti-psychotic”) was “+ (LOQ ≤ + <5%)”, the “SD: sedative hypnotic (probability that activity matches class)” value (“SD: sedative hypnotic” for short) was “+ (LOQ ≤ + <5%)” and the “UN: uncharacterized CNS activity (probability that activity matches class)” value (“UN: uncharacterized CNS activity” below) was “+ (LOQ ≤ + <5%)”. With CNC[C@H]1OCCc2c(-c3ccnc(C)c3)cccc21 (single isomer, unassigned) [Compound 121, hydrochloride salt] the “AD: ADHD” value was “++ (5% ≤ ++ <25%)”, the “AG: analgesic” value was “+ (LOQ ≤ + <5%)” and the “AX: anxiolytic” value was “++ (5% ≤ ++ <25%)”. The “CE: cognitive enhancer” value was “+ (LOQ ≤ + <5%)”, the “DP: anti-depressant” value was “++++ (50% ≤ ++++)” and the “MS: mood stabilizer” value was “+ (LOQ ≤ + <5%)”. The “PS: anti-psychotic” value was “+ (LOQ ≤ + <5%)”, the “SD: sedative hypnotic” value was “++ (5% ≤ ++ <25%)” and the “UN: uncharacterized CNS activity” value was “+ (LOQ ≤ + <5%)”. With Cc1cc(-c2cccc3c2CCO[C@H]3CN)ccn1 (single isomer, unassigned) [Compound 122, hydrochloride salt] the “AD: ADHD” value was “+ (LOQ ≤ + <5%)”, the “AG: analgesic” value was “+ (LOQ ≤ + <5%)” and the “AX: anxiolytic” value was “++ (5% ≤ ++ <25%)”. The “CE: cognitive enhancer” value was “+ (LOQ ≤ + <5%)”, the “DP: anti-depressant” value was “+ (LOQ ≤ + <5%)” and the “MS: mood stabilizer” value was “+ (LOQ ≤ + <5%)”. The “PS: anti-psychotic” value was “+ (LOQ ≤ + <5%)”, the “SD: sedative hypnotic” value was “+ (LOQ ≤ + <5%)” and the “UN: uncharacterized CNS activity” value was “+ (LOQ ≤ + <5%)”. With Cc1cc(-c2cccc3c2CCO[C@@H]3CN)ccn1 (single isomer, unassigned) [Compound 123, hydrochloride salt] the “AD: ADHD” value was “++ (5% ≤ ++ <25%)”, the “AG: analgesic” value was “+ (LOQ ≤ + <5%)” and the “AX: anxiolytic” value was “++ (5% ≤ ++ <25%)”. For the same molecule, the “CE: cognitive enhancer” value was “+ (LOQ ≤ + <5%)”, the “DP: anti-depressant” value was “++++ (50% ≤ ++++)” and the “MS: mood stabilizer” value was “+ (LOQ ≤ + <5%)”. For the same molecule, the “PS: anti-psychotic” value was “+ (LOQ ≤ + <5%)”, the “SD: sedative hypnotic” value was “+ (LOQ ≤ + <5%)” and the “UN: uncharacterized CNS activity” value was “+ (LOQ ≤ + <5%)”. In the case of CNC[C@@H]1OCCc2c(-c3ccccc3)cccc21 (single isomer, unassigned) [Compound 128, hydrochloride salt], the “AD: ADHD” value is reported as “+ (LOQ ≤ + <5%)”, the “AG: analgesic” value is reported as “+ (LOQ ≤ + <5%)” and the “AX: anxiolytic” value is reported as “+ (LOQ ≤ + <5%)”. For the same molecule, the “CE: cognitive enhancer” value was “+ (LOQ ≤ + <5%)”, the “DP: anti-depressant” value was “+ (LOQ ≤ + <5%)” and the “MS: mood stabilizer” value was “+ (LOQ ≤ + <5%)”. For the same molecule, the “PS: anti-psychotic” value was “+ (LOQ ≤ + <5%)”, the “SD: sedative hypnotic” value was “+ (LOQ ≤ + <5%)” and the “UN: uncharacterized CNS activity” value was “+ (LOQ ≤ + <5%)”. CNC[C@H]1OCCc2c(-c3ccccc3)cccc21 (single isomer, unassigned) [Compound 129, hydrochloride salt] was tested, and the “AD: ADHD” value was “+ (LOQ ≤ + <5%)”, the “AG: analgesic” value was “+ (LOQ ≤ + <5%)” and the “AX: anxiolytic” value was “+ (LOQ ≤ + <5%)”. The “CE: cognitive enhancer” value was “++ (5% ≤ ++ <25%)”, the “DP: anti-depressant” value was “++++ (50% ≤ ++++)” and the “MS: mood stabilizer” value was “+ (LOQ ≤ + <5%)”. For the same molecule, the “PS: anti-psychotic” value was “+ (LOQ ≤ + <5%)”, the “SD: sedative hypnotic” value was “++ (5% ≤ ++ <25%)” and the “UN: uncharacterized CNS activity” value was “+ (LOQ ≤ + <5%)”. In the case of NC[C@@H]1OCCc2c(-c3ccccc3)cccc21 (single isomer, unassigned) [Compound 130, hydrochloride salt], the “AD: ADHD” value is reported as “+ (LOQ ≤ + <5%)”, the “AG: analgesic” value is reported as “+ (LOQ ≤ + <5%)” and the “AX: anxiolytic” value is reported as “++ (5% ≤ ++ <25%)”. The “CE: cognitive enhancer” value was “+ (LOQ ≤ + <5%)”, the “DP: anti-depressant” value was “++ (5% ≤ ++ <25%)” and the “MS: mood stabilizer” value was “+ (LOQ ≤ + <5%)”. The “PS: anti-psychotic” value was “+ (LOQ ≤ + <5%)”, the “SD: sedative hypnotic” value was “+ (LOQ ≤ + <5%)” and the “UN: uncharacterized CNS activity” value was “+ (LOQ ≤ + <5%)”. With NC[C@H]1OCCc2c(-c3ccccc3)cccc21 (single isomer, unassigned) [Compound 131, hydrochloride salt] the “AD: ADHD” value was “+ (LOQ ≤ + <5%)”, the “AG: analgesic” value was “+ (LOQ ≤ + <5%)” and the “AX: anxiolytic” value was “++ (5% ≤ ++ <25%)”. The “CE: cognitive enhancer” value was “+ (LOQ ≤ + <5%)”, the “DP: anti-depressant” value was “++++ (50% ≤ ++++)” and the “MS: mood stabilizer” value was “+ (LOQ ≤ + <5%)”. The “PS: anti-psychotic” value was “+ (LOQ ≤ + <5%)”, the “SD: sedative hypnotic” value was “+ (LOQ ≤ + <5%)” and the “UN: uncharacterized CNS activity” value was “++ (5% ≤ ++ <25%)”. CNC[C@@H]1OCCCc2c(-c3ccncc3)cccc21 (single isomer, unassigned) [Compound 148] was tested, and the “AD: ADHD” value was “+ (LOQ ≤ + <5%)”, the “AG: analgesic” value was “+ (LOQ ≤ + <5%)” and the “AX: anxiolytic” value was “++ (5% ≤ ++ <25%)”. The “CE: cognitive enhancer” value was “+ (LOQ ≤ + <5%)”, the “DP: anti-depressant” value was “+ (LOQ ≤ + <5%)” and the “MS: mood stabilizer” value was “+ (LOQ ≤ + <5%)”. The “PS: anti-psychotic” value was “+ (LOQ ≤ + <5%)”, the “SD: sedative hypnotic” value was “+ (LOQ ≤ + <5%)” and the “UN: uncharacterized CNS activity” value was “+ (LOQ ≤ + <5%)”. For CNC[C@H]1OCCCc2c(-c3ccncc3)cccc21 (single isomer, unassigned) [Compound 149], the “AD: ADHD” value was “++ (5% ≤ ++ <25%)”, the “AG: analgesic” value was “+ (LOQ ≤ + <5%)” and the “AX: anxiolytic” value was “++ (5% ≤ ++ <25%)”. The “CE: cognitive enhancer” value was “+ (LOQ ≤ + <5%)”, the “DP: anti-depressant” value was “++++ (50% ≤ ++++)” and the “MS: mood stabilizer” value was “+ (LOQ ≤ + <5%)”. The “PS: anti-psychotic” value was “+ (LOQ ≤ + <5%)”, the “SD: sedative hypnotic” value was “+ (LOQ ≤ + <5%)” and the “UN: uncharacterized CNS activity” value was “++ (5% ≤ ++ <25%)”. NC[C@@H]1OCCCc2c(-c3ccncc3)cccc21 (single isomer, unassigned) [Compound 150] was tested, and the “AD: ADHD” value was “+ (LOQ ≤ + <5%)”, the “AG: analgesic” value was “+ (LOQ ≤ + <5%)” and the “AX: anxiolytic” value was “++ (5% ≤ ++ <25%)”. The “CE: cognitive enhancer” value was “+ (LOQ ≤ + <5%)”, the “DP: anti-depressant” value was “++ (5% ≤ ++ <25%)” and the “MS: mood stabilizer” value was “+ (LOQ ≤ + <5%)”. The “PS: anti-psychotic” value was “+ (LOQ ≤ + <5%)”, the “SD: sedative hypnotic” value was “+ (LOQ ≤ + <5%)” and the “UN: uncharacterized CNS activity” value was “+ (LOQ ≤ + <5%)”. For NC[C@H]1OCCCc2c(-c3ccncc3)cccc21 (single isomer, unassigned) [Compound 151], the “AD: ADHD” value was “+ (LOQ ≤ + <5%)”, the “AG: analgesic” value was “+ (LOQ ≤ + <5%)” and the “AX: anxiolytic” value was “++ (5% ≤ ++ <25%)”. For the same molecule, the “CE: cognitive enhancer” value was “+ (LOQ ≤ + <5%)”, the “DP: anti-depressant” value was “++++ (50% ≤ ++++)” and the “MS: mood stabilizer” value was “+ (LOQ ≤ + <5%)”. For the same molecule, the “PS: anti-psychotic” value was “+ (LOQ ≤ + <5%)”, the “SD: sedative hypnotic” value was “+ (LOQ ≤ + <5%)” and the “UN: uncharacterized CNS activity” value was “+ (LOQ ≤ + <5%)”. For CNC[C@@H]1OCCCc2c(-c3ccccn3)cccc21 (single isomer, unassigned) [Compound 156, hydrochloride salt], the “AD: ADHD” value was “+ (LOQ ≤ + <5%)”, the “AG: analgesic” value was “+ (LOQ ≤ + <5%)” and the “AX: anxiolytic” value was “+ (LOQ ≤ + <5%)”. For the same molecule, the “CE: cognitive enhancer” value was “+ (LOQ ≤ + <5%)”, the “DP: anti-depressant” value was “+ (LOQ ≤ + <5%)” and the “MS: mood stabilizer” value was “+ (LOQ ≤ + <5%)”. The “PS: anti-psychotic” value was “+ (LOQ ≤ + <5%)”, the “SD: sedative hypnotic” value was “+ (LOQ ≤ + <5%)” and the “UN: uncharacterized CNS activity” value was “+ (LOQ ≤ + <5%)”.
